Reference: the NIST ThermoML archive (doi:10.1021/acs.jced.8b01193)
Numbers after ± are expanded uncertainties.

Assays:
[1] = Molar enthalpy of transition or fusion; conditions: Crystal; DSC
[2] = Crystal; DSC

O=C1CCCCCCCCCCCN1 [2-azacyclotridecanone]
Molar enthalpy of transition or fusion [1]: 3.9 ± 0.12 kcal/mol | Triple point temperature [2]: 425.95 ± 0.93 K
